Results published in ChEMBL document CHEMBL3399993, “Design and synthesis of novel quinoline-aminopiperidine hybrid analogues as Mycobacterium tuberculosis DNA gyraseB inhibitors” (Bioorg Med Chem, 2015).
In brackets after ≈: the same amount, converted by molar mass.

How the values were obtained:
[1] = system: Mycobacterium tuberculosis; test: Antimycobacterial activity against Mycobacterium tuberculosis H37Rv ATCC 27294 incubated for 7 days by microplate alamar blue assay method; type: functional; settings: H37Rv ATCC 27294, 168 h
[2] = target: DNA gyrase subunit A/DNA gyrase subunit B (Mycobacterium tuberculosis (strain ATCC 25618 / H37Rv), UniProt P9WG45+P9WG47); test: Inhibition of Mycobacterium tuberculosis GyrA/GyrB using relaxed pBR322 substrate incubated for 30 mins by ethidium bromide staining and electrophoresis based DNA supercoiling assay
DNA gyrase subunit A/DNA gyrase subunit B, sequence (P9WG45 whole entry): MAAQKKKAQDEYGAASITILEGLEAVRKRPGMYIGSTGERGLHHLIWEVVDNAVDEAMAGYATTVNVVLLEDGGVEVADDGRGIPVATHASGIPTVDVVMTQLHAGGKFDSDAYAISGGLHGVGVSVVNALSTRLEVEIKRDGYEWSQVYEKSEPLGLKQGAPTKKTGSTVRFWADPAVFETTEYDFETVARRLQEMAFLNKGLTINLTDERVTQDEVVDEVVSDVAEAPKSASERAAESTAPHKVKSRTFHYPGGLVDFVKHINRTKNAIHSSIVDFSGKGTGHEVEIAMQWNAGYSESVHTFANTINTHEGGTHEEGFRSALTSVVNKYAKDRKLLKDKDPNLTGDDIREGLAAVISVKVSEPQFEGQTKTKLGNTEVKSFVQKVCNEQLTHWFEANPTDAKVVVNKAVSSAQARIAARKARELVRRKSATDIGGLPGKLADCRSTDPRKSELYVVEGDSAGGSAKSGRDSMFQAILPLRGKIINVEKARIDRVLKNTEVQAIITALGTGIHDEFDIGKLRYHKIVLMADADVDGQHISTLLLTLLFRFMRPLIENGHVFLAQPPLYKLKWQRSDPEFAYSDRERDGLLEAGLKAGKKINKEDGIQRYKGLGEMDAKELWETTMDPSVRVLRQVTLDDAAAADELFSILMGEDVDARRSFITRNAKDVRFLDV
DNA gyrase subunit A/DNA gyrase subunit B, sequence (P9WG47 whole entry): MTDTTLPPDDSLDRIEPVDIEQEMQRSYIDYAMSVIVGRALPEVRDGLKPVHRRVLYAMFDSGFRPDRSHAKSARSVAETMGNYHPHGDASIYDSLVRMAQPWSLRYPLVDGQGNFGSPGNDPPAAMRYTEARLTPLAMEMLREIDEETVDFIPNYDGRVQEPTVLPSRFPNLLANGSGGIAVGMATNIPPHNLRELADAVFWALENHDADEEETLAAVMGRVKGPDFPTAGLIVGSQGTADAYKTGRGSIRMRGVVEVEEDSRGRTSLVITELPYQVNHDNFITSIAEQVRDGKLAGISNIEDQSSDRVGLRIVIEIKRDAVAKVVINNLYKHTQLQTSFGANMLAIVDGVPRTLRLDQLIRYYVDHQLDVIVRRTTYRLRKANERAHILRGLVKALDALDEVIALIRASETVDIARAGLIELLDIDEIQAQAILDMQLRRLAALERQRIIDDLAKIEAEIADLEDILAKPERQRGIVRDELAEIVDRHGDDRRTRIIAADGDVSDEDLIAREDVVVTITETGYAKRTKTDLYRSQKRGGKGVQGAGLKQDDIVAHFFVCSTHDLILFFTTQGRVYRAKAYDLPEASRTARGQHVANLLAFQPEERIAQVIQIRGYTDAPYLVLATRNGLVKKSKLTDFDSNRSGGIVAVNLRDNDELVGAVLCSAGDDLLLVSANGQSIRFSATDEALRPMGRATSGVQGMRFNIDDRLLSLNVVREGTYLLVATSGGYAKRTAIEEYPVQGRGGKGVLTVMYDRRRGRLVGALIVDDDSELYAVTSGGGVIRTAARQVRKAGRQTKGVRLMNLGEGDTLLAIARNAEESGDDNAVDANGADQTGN

DNA gyrase subunit B = DNA gyrase subunit B (Mycobacterium smegmatis, UniProt P0C559); test: Inhibition of Mycobacterium smegmatis GyrB ATPase activity expressed in Escherichia coli BL21 (DE3) pLysS cells after 100 mins by inorganic phosphate release detection based malachite green reagent assay; design: species or system Mycolicibacterium smegmatis
DNA gyrase subunit B, sequence (P0C559 whole entry): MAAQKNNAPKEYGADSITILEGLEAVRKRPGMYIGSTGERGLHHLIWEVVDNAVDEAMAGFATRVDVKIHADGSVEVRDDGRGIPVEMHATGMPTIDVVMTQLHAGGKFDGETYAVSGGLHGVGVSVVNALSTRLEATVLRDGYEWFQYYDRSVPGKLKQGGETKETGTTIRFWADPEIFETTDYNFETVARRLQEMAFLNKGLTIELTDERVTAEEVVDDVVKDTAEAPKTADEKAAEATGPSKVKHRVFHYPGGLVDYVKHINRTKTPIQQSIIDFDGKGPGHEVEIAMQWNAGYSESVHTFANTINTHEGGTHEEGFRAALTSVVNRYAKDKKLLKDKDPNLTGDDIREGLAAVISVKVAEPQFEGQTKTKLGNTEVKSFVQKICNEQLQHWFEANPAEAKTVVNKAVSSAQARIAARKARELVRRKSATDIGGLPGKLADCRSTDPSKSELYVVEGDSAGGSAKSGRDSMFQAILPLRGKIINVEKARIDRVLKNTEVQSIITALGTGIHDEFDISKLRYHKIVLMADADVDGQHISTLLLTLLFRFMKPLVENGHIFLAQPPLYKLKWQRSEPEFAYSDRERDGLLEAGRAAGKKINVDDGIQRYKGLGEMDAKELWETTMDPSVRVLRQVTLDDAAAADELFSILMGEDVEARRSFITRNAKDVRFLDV

[3] = Cytotoxicity against mouse RAW264.7 cells assessed as inhibition of cell growth at 50 uM after 48 hrs by MTT assay; type: cell-based; settings: read-out: GI

SMILES	MIC [1]	IC50 [2]	IC50 (DNA gyrase subunit B)	inhibition at 48 h, 50 µM [3]
COc1ccc(NC(=S)NC2CCN(c3cc(C)nc4ccc(F)cc34)CC2)cc1	31.7 µM (≈ 13.4 µg/mL)	17.8 µM	39.5 µM	21.3%
COc1ccc2nc(C)cc(N3CCC(NC(=S)Nc4ccc(F)cc4)CC3)c2c1	14.7 µM (≈ 6.25 µg/mL)	2.31 µM	8.7 µM	29.3%
COc1ccc2nc(C)cc(N3CCC(NC(=O)Nc4ccc(C)cc4)CC3)c2c1	15.4 µM (≈ 6.25 µg/mL)	8.63 µM	11.5 µM	28.2%
Cc1ccc(NC(=S)NC2CCN(c3cc(C)nc4ccc(F)cc34)CC2)cc1	67.9 µM (≈ 27.8 µg/mL)	25.4 µM	59.3 µM	23.9%
NNC(=O)c1ccncc1 [ISONIAZID]	0.66 µM (≈ 0.0905 µg/mL)			
COc1ccc(NC(=O)NC2CCN(c3cc(C)nc4ccc(F)cc34)CC2)cc1	7.65 µM (≈ 3.12 µg/mL)	7.62 µM	10.1 µM	49.7%
COc1ccc2nc(C)cc(N3CCC(NC(=O)Nc4ccccc4)CC3)c2c1	32 µM (≈ 12.5 µg/mL)	9.32 µM	12.2 µM	66.5%
Cc1cc(N2CCC(NC(=S)Nc3ccc(Cl)cc3)CC2)c2ccccc2n1	15.2 µM (≈ 6.25 µg/mL)	8.12 µM	12.3 µM	20.8%
Cc1cc(N2CCC(NC(=O)Nc3ccc(F)cc3)CC2)c2cc(F)ccc2n1	3.82 µM (≈ 1.51 µg/mL)	0.78 µM	1.78 µM	25.4%
CO[C@H]1/C=C/O[C@@]2(C)Oc3c(C)c(O)c4c(O)c(c(/C=N/N5CCN(C)CC5)c(O)c4c3C2=O)NC(=O)/C(C)=C\C=C\[C@H](C)[C@H](O)[C@@H](C)[C@@H](O)[C@@H](C)[C@H](OC(C)=O)[C@@H]1C [RIFAMPIN]	0.23 µM (≈ 0.189 µg/mL)			
Cc1cc(N2CCC(NC(=O)Nc3ccc(F)cc3)CC2)c2ccccc2n1	34.1 µM (≈ 12.9 µg/mL)	19.7 µM	34.9 µM	49.4%
Cc1cc(N2CCC(NC(=O)Nc3ccc([N+](=O)[O-])cc3)CC2)c2cc(F)ccc2n1	9.52 µM (≈ 4.03 µg/mL)	2.14 µM	6.83 µM	47.9%
Cc1cc(N2CCC(NC(=O)Nc3ccc([N+](=O)[O-])cc3)CC2)c2ccccc2n1	15.4 µM (≈ 6.25 µg/mL)	10.6 µM	17 µM	30.4%
COc1ccc2nc(C)cc(N3CCC(NC(=S)Nc4ccccc4)CC3)c2c1	3.81 µM (≈ 1.55 µg/mL)	0.91 µM	2.14 µM	41.9%
COc1ccc2nc(C)cc(N3CCC(NC(=O)Nc4ccc([N+](=O)[O-])cc4)CC3)c2c1	14.7 µM (≈ 6.4 µg/mL)	5.33 µM	6.99 µM	35%
COc1ccc(NC(=O)NC2CCN(c3cc(C)nc4ccccc34)CC2)cc1	32 µM (≈ 12.5 µg/mL)	18.5 µM	22 µM	49.5%
COc1ccc(NC(=S)NC2CCN(c3cc(C)nc4ccc(C(F)(F)F)cc34)CC2)cc1	66.9 µM (≈ 31.7 µg/mL)	34.5 µM	32.6 µM	41.8%
Cc1cc(N2CCC(NC(=O)Nc3ccc([N+](=O)[O-])cc3)CC2)c2cc(C(F)(F)F)ccc2n1	52.2 µM (≈ 24.7 µg/mL)	22.3 µM	47.6 µM	48.2%
Cc1cc(N2CCC(NC(=S)Nc3ccccc3)CC2)c2cc(F)ccc2n1	63.3 µM (≈ 25 µg/mL)	39.4 µM	68.2 µM	37.4%
CO[C@@H]1[C@@H](OC(N)=O)[C@@H](O)[C@H](Oc2ccc3c(O)c(NC(=O)c4ccc(O)c(CC=C(C)C)c4)c(=O)oc3c2C)OC1(C)C [NOVOBIOCIN]	> 200 µM			

SMILES	MIC [1]	IC50 [2]	IC50 (DNA gyrase subunit B)	inhibition at 48 h, 50 µM [3]
Cc1cc(N2CCC(NC(=S)Nc3ccccc3)CC2)c2cc(C(F)(F)F)ccc2n1	35.8 µM (≈ 15.9 µg/mL)	29.4 µM	39 µM	23.3%
COc1ccc(NC(=S)NC2CCN(c3cc(C)nc4ccc(OC)cc34)CC2)cc1	15.8 µM (≈ 6.92 µg/mL)	6.17 µM	10.1 µM	31.8%
COc1ccc2nc(C)cc(N3CCC(NC(=O)Nc4ccc(F)cc4)CC3)c2c1	25.7 µM (≈ 10.5 µg/mL)	14.8 µM	18.5 µM	17.3%
COc1c(N2C[C@@H]3CCCN[C@@H]3C2)c(F)cc2c(=O)c(C(=O)O)cn(C3CC3)c12 [MOXIFLOXACIN]	1.26 µM (≈ 0.506 µg/mL)		> 50 µM	
Cc1ccc(NC(=S)NC2CCN(c3cc(C)nc4ccc(C(F)(F)F)cc34)CC2)cc1	31.7 µM (≈ 14.5 µg/mL)	5.1 µM	24.7 µM	19.3%
Cc1cc(N2CCC(NC(=S)Nc3ccc(Cl)cc3)CC2)c2cc(C(F)(F)F)ccc2n1	30.7 µM (≈ 14.7 µg/mL)	4.12 µM	16.5 µM	11.8%
Cc1cc(N2CCC(NC(=O)Nc3ccc(F)cc3)CC2)c2cc(C(F)(F)F)ccc2n1	24.9 µM (≈ 11.1 µg/mL)	11.8 µM	19.8 µM	39.8%
Cc1cc(N2CCC(NC(=O)Nc3ccccc3)CC2)c2cc(F)ccc2n1	33 µM (≈ 12.5 µg/mL)	9.84 µM	20.5 µM	48.9%
COc1ccc2nc(C)cc(N3CCC(NC(=S)Nc4ccc([N+](=O)[O-])cc4)CC3)c2c1	1.72 µM (≈ 0.777 µg/mL)	0.88 µM	2.5 µM	24.9%
Cc1cc(N2CCC(NC(=S)Nc3ccc([N+](=O)[O-])cc3)CC2)c2ccccc2n1	7.65 µM (≈ 3.22 µg/mL)	1.21 µM	3.77 µM	31.8%
Cc1cc(N2CCC(NC(=O)Nc3ccc(Cl)cc3)CC2)c2cc(C(F)(F)F)ccc2n1	48.5 µM (≈ 22.5 µg/mL)	17.3 µM	34 µM	29.1%
COc1ccc(NC(=O)NC2CCN(c3cc(C)nc4ccc(OC)cc34)CC2)cc1	12.6 µM (≈ 5.29 µg/mL)	5.86 µM	9.25 µM	19.6%
Cc1cc(N2CCC(NC(=O)Nc3ccc(Cl)cc3)CC2)c2cc(F)ccc2n1	50.8 µM (≈ 21 µg/mL)	29.6 µM	49 µM	49.7%
Cc1ccc(NC(=O)NC2CCN(c3cc(C)nc4ccc(C(F)(F)F)cc34)CC2)cc1	28.1 µM (≈ 12.4 µg/mL)	9.2 µM	16.6 µM	16.2%
COc1ccc2nc(C)cc(N3CCC(NC(=O)Nc4ccc(Cl)cc4)CC3)c2c1	17.4 µM (≈ 7.37 µg/mL)	14.3 µM	16.2 µM	42.4%
Cc1cc(N2CCC(NC(=S)Nc3ccc([N+](=O)[O-])cc3)CC2)c2cc(F)ccc2n1	63.3 µM (≈ 27.8 µg/mL)	25.5 µM	56.1 µM	40.7%
Cc1cc(N2CCC(NC(=O)Nc3ccc(Cl)cc3)CC2)c2ccccc2n1	7.91 µM (≈ 3.12 µg/mL)	8.2 µM	12.9 µM	40.1%
Cc1cc(N2CCC(NC(=S)Nc3ccc([N+](=O)[O-])cc3)CC2)c2cc(C(F)(F)F)ccc2n1	51.1 µM (≈ 25 µg/mL)	7.54 µM	41.8 µM	19.8%
Cc1cc(N2CCC(NC(=O)Nc3ccccc3)CC2)c2ccccc2n1	25.8 µM (≈ 9.31 µg/mL)	9.79 µM	17.3 µM	33.9%
Cc1ccc(NC(=O)NC2CCN(c3cc(C)nc4ccccc34)CC2)cc1	24.1 µM (≈ 9.04 µg/mL)	14.8 µM	20.5 µM	51.4%
